Results taken from patent EP1897542A1, “Aqueous formulation comprising an antitumor agent” (Sanofi-Aventis, priority 2006, dated 2008).

Legend:
[1] = In vitro hemolytic potential with dog erythrocytes, phosphate buffer vehicle (Example 1); type: cell-based; conditions: dog, whole blood, n=5 (mean), percentage of that induced by saponin
Procedure: (§1) The following study was performed to evaluate the hemolytic potential of solutions of (2R)-2-[4-(7-bromo-2-quinolyloxy)phenoxy]propanoic acid in a 0.1 M pH 8 phosphate bufferred vehicle at concentrations of 10 mg/mL and 20 mg/mL. Saline (0.9% NaCl) was used as a negative control, and saponin (3% aqueous solution), which is a known inducer of hemolysis, was used as the positive control.
(§2) Dog whole blood was mixed in a 1:1 ratio and a 9:1 ratio with solutions of the active ingredient in the vehicle and with the vehicles alone. Dog whole blood was also mixed in a 1:1 ratio and a 9:1 ratio with a 3% saponin solution as the positive control and saline (0.9% NaCl) as the negative control.
(§3) After mixing, tubes were incubated for 30 minutes at 37°C, then centrifuged (3000 t/min.) for 10 minutes. Hemoglobin concentrate was dosed in the supernatant by spectrophotometry UV/visible (Genesis technologies) for the assessment of the in vitro hemolytic potential. The percent of hemolysis was calculated based on the results of the saponin samples.

dog erythrocytes [2] = assay: as above; type: cell-based; conditions: 10 and 20 mg/mL solutions in 0.1 M pH 8 phosphate buffer
Procedure: as §1, §2, §3

dog erythrocytes [3] = assay: In vitro hemolytic potential in dog erythrocytes for a formulation containing a cyclodextrin (Example 4); type: cell-based; conditions: 10 mg/mL Active Ingredient in 0.05M pH 7 phosphate buffer with 10% (w/v) hydroxypropyl beta cyclodextrin, n=6 (mean), percentage of that induced by saponin, 30 min
Procedure: Saline (0.9% NaCl) was used as the negative control, and saponin (3% aqueous solution) was used as the positive control.
as §2, §3

[4] = In vivo study in dogs with phosphate buffer formulation, 30-minute infusion (Example 6); design: species or system beagle dog; conditions: 0.1M phosphate buffer, single IV infusion over 30 minutes, 1 male and 1 female
Procedure: Dosages were 25 and 50 mg/kg. Sampling for plasma level determination was taken for 1 day at the following intervals: end of infusion (0), 30 minutes, 1 hour, 3 hours, 6 hours, and 24 hours after the end of the infusion.

[5] = In vivo study in rats with phosphate buffer formulation, 1-hour infusion (Example 7); conditions: 400 mg/kg dose, 0.1M phosphate buffer, single IV infusion over 1 hour, day of the infusion
Procedure: Dosages were 0 (control), 100, 200, and 400 mg/kg.

[6] = Preliminary animal toxicological studies, infusion of simple phosphate buffer formulation; type: in vivo; conditions: infused at 10 mg/mL or greater as a simple phosphate buffer formulation
Text: (2R)-2-[4-(7-Bromo-2-quinolyloxy)phenoxy]propanoic acid may be administered as a liquid parenteral formulation. […] Since significant hemolysis can cause anemia, the hemolytic effect of (2R)-2-[4-(7-bromo-2-quinolyloxy)phenoxy]propanoic acid is an undesirable property for a pharmaceutical composition.

In the case of `C[C@@H](Oc1ccc(Oc2ccc3ccc(Br)cc3n2)cc1)C(=O)O` [Active Ingredient, (2R)-2-[4-(7-bromo-2-quinolyloxy)phenoxy]propanoic acid], the hemolysis at 0.5 h ([1]; pH 8, 10 mg/mL Active Ingredient in 0.1 M pH 8 phosphate buffer, Blood/Solution ratio 1:1) is reported as 24%, the hemolysis at 0.5 h ([1]; pH 8, 10 mg/mL Active Ingredient in 0.1 M pH 8 phosphate buffer, Blood/Solution ratio 9:1) is reported as 4.5% and the hemolysis at 0.5 h ([1]; pH 8, 20 mg/mL Active Ingredient in 0.1 M pH 8 phosphate buffer, Blood/Solution ratio 1:1) is reported as 28%. The hemolysis at 0.5 h ([1]; pH 8, 20 mg/mL Active Ingredient in 0.1 M pH 8 phosphate buffer, Blood/Solution ratio 9:1) was 6.6%, the “hemolysis of dog erythrocytes (result in words)” value (dog erythrocytes [2]) was “induced hemolysis” and the “Percentage of Hemolysis” value (dog erythrocytes [3]; Blood/Solution ratio 1:1) was 1.8%. For the same compound, the “Percentage of Hemolysis” value (dog erythrocytes [3]; Blood/Solution ratio 9:1) was 0.5%, the “visual hemolysis on plasma samples” value ([4]; 25 mg/kg, seen at time 0 and 30 minutes post infusion (all animals), 1 hour (male)) was “visual hemolysis was observed” and the “visual hemolysis on plasma samples” value ([4]; 50 mg/kg, seen at time 0, 30 minutes, 1 hour, 3 hours (both animals) and 6 hours (female)) was “visual hemolysis was observed”. For the same compound, the “discolored urine (red/brown), animals affected” value ([5]; females) was 8 out of 10, the “discolored urine (red/brown), animals affected” value ([5]; males) was 6 out of 10 and the hemolysis [6] was “cause a degree of hemolysis”.
